Laboratory results from the NIST ThermoML archive (doi:10.1016/j.jct.2018.09.003).
± gives the expanded uncertainty stated by the source.

Key:
[1] = activity coefficient (dimensionless); of the first substance listed, at infinite dilution; xn = mol fraction of the nth substance listed; details: 101.33 kPa, Liquid, Chromatography, x1 = 0
[2] = 101.33 kPa, Liquid, Vibrating tube method

| Compound | activity coefficient ([1]; 313.15 K) | activity coefficient ([1]; 323.15 K) | activity coefficient ([1]; 333.15 K) | activity coefficient ([1]; 343.15 K) | activity coefficient ([1]; 353.15 K) | mass density ([2]; 313.15 K) | mass density ([2]; 323.15 K) | mass density ([2]; 333.15 K) | mass density ([2]; 343.15 K) | mass density ([2]; 353.15 K) |
| --- | --- | --- | --- | --- | --- | --- | --- | --- | --- | --- |
| Cc1ccccc1C [1,2-dimethylbenzene] + CCCCCCCCn1cc[n+](C)c1C.F[B-](F)(F)F | 3.5 ± 0.37 | 3.58 ± 0.38 | 3.7 ± 0.39 | 3.82 ± 0.4 | 3.87 ± 0.41 |  |  |  |  |  |
| Cc1cccc(C)c1 [1,3-dimethylbenzene] + CCCCCCCCn1cc[n+](C)c1C.F[B-](F)(F)F | 4.19 ± 0.44 | 4.24 ± 0.45 | 4.29 ± 0.45 | 4.35 ± 0.46 | 4.4 ± 0.46 |  |  |  |  |  |
| Cc1ccc(C)cc1 [1,4-dimethylbenzene] + CCCCCCCCn1cc[n+](C)c1C.F[B-](F)(F)F | 4.06 ± 0.43 | 4.12 ± 0.43 | 4.16 ± 0.44 | 4.2 ± 0.44 | 4.24 ± 0.45 |  |  |  |  |  |
| C1COCCO1 [1,4-dioxane] + CCCCCCCCn1cc[n+](C)c1C.F[B-](F)(F)F | 1.67 ± 0.17 | 1.72 ± 0.18 | 1.77 ± 0.18 | 1.81 ± 0.19 | 1.86 ± 0.19 |  |  |  |  |  |
| CC(C)CC(C)(C)C [2,2,4-trimethylpentane] + CCCCCCCCn1cc[n+](C)c1C.F[B-](F)(F)F | 29.6 ± 3.1 | 28.8 ± 3 | 27.9 ± 2.9 | 26.9 ± 2.8 | 26.1 ± 2.8 |  |  |  |  |  |
| CC(C)=O [acetone] + CCCCCCCCn1cc[n+](C)c1C.F[B-](F)(F)F | 1.38 ± 0.14 | 1.4 ± 0.14 | 1.41 ± 0.15 | 1.42 ± 0.15 | 1.43 ± 0.15 |  |  |  |  |  |
| CC#N [acetonitrile] + CCCCCCCCn1cc[n+](C)c1C.F[B-](F)(F)F | 1.01 ± 0.1 | 1.02 ± 0.1 | 1.04 ± 0.11 | 1.05 ± 0.11 | 1.07 ± 0.11 |  |  |  |  |  |
| c1ccccc1 [benzene] + CCCCCCCCn1cc[n+](C)c1C.F[B-](F)(F)F | 2.04 ± 0.21 | 2.07 ± 0.22 | 2.1 ± 0.22 | 2.12 ± 0.22 | 2.15 ± 0.23 |  |  |  |  |  |
| CCCCCCC [heptane] + CCCCCCCCn1cc[n+](C)c1C.F[B-](F)(F)F | 25.5 ± 2.7 | 25.1 ± 2.6 | 24.7 ± 2.6 | 24.3 ± 2.5 | 23.9 ± 2.5 |  |  |  |  |  |
| CCCCCC [hexane] + CCCCCCCCn1cc[n+](C)c1C.F[B-](F)(F)F | 20 ± 2.1 | 19.8 ± 2.1 | 19.2 ± 2 | 18.7 ± 2 | 18.1 ± 1.9 |  |  |  |  |  |
| CO [methanol] + CCCCCCCCn1cc[n+](C)c1C.F[B-](F)(F)F | 1.57 ± 0.16 | 1.47 ± 0.15 | 1.36 ± 0.14 | 1.26 ± 0.13 | 1.18 ± 0.12 |  |  |  |  |  |
| CC1CCCCC1 [methylcyclohexane] + CCCCCCCCn1cc[n+](C)c1C.F[B-](F)(F)F | 15.8 ± 1.7 | 15.5 ± 1.6 | 15.1 ± 1.6 | 14.7 ± 1.6 | 14.3 ± 1.5 |  |  |  |  |  |
| CCCCCCCCC [nonane] + CCCCCCCCn1cc[n+](C)c1C.F[B-](F)(F)F | 42.2 ± 4.4 | 41.1 ± 4.3 | 39.6 ± 4.2 | 38.4 ± 4 | 37.1 ± 3.9 |  |  |  |  |  |
| CCCCCCCC [octane] + CCCCCCCCn1cc[n+](C)c1C.F[B-](F)(F)F | 33 ± 3.5 | 32.5 ± 3.4 | 32.2 ± 3.4 | 31.8 ± 3.3 | 31.3 ± 3.3 |  |  |  |  |  |
| CCCO [propan-1-ol] + CCCCCCCCn1cc[n+](C)c1C.F[B-](F)(F)F | 2.56 ± 0.27 | 2.39 ± 0.25 | 2.24 ± 0.24 | 2.1 ± 0.22 | 1.97 ± 0.21 |  |  |  |  |  |
| CC(C)O [propan-2-ol] + CCCCCCCCn1cc[n+](C)c1C.F[B-](F)(F)F | 2.5 ± 0.26 | 2.35 ± 0.25 | 2.2 ± 0.23 | 2.07 ± 0.22 | 1.93 ± 0.2 |  |  |  |  |  |
| ClC(Cl)(Cl)Cl [tetrachloromethane] + CCCCCCCCn1cc[n+](C)c1C.F[B-](F)(F)F | 4.11 ± 0.43 | 4.16 ± 0.44 | 4.2 ± 0.44 | 4.23 ± 0.44 | 4.26 ± 0.45 |  |  |  |  |  |
| C1CCOC1 [tetrahydrofuran] + CCCCCCCCn1cc[n+](C)c1C.F[B-](F)(F)F | 2.06 ± 0.22 | 2.1 ± 0.22 | 2.12 ± 0.22 | 2.13 ± 0.22 | 2.15 ± 0.23 |  |  |  |  |  |
| Cc1ccccc1 [toluene] + CCCCCCCCn1cc[n+](C)c1C.F[B-](F)(F)F | 2.84 ± 0.3 | 2.89 ± 0.3 | 2.95 ± 0.31 | 3.02 ± 0.32 | 3.09 ± 0.32 |  |  |  |  |  |

Next, values leading:

| activity coefficient ([1]; 313.15 K) | activity coefficient ([1]; 323.15 K) | activity coefficient ([1]; 333.15 K) | activity coefficient ([1]; 343.15 K) | activity coefficient ([1]; 353.15 K) | mass density ([2]; 313.15 K) | mass density ([2]; 323.15 K) | mass density ([2]; 333.15 K) | mass density ([2]; 343.15 K) | mass density ([2]; 353.15 K) | Compound |
| --- | --- | --- | --- | --- | --- | --- | --- | --- | --- | --- |
|  |  |  |  |  | 1092.3 ± 2.5 kg/m3 | 1086 ± 2.5 kg/m3 | 1079.7 ± 2.5 kg/m3 | 1073.3 ± 2.5 kg/m3 | 1067 ± 2.5 kg/m3 | CCCCCCCCn1cc[n+](C)c1C.F[B-](F)(F)F [1-octyl-2,3-dimethylimidazolium tetrafluoroborate] |
| 2.66 ± 0.28 | 2.54 ± 0.27 | 2.42 ± 0.25 | 2.3 ± 0.24 | 2.19 ± 0.23 |  |  |  |  |  | CC(C)CO [2-methyl-1-propanol] + CCCCCCCCn1cc[n+](C)c1C.F[B-](F)(F)F |
| 2.79 ± 0.29 | 2.64 ± 0.28 | 2.52 ± 0.26 | 2.4 ± 0.25 | 2.28 ± 0.24 |  |  |  |  |  | CCCCO [butan-1-ol] + CCCCCCCCn1cc[n+](C)c1C.F[B-](F)(F)F |
| 2.93 ± 0.31 | 2.78 ± 0.29 | 2.65 ± 0.28 | 2.51 ± 0.26 | 2.4 ± 0.25 |  |  |  |  |  | CCC(C)O (stereo not given) [butan-2-ol] + CCCCCCCCn1cc[n+](C)c1C.F[B-](F)(F)F |
| 12.8 ± 1.4 | 12.5 ± 1.3 | 12.2 ± 1.3 | 11.9 ± 1.2 | 11.5 ± 1.2 |  |  |  |  |  | C1CCCCC1 [cyclohexane] + CCCCCCCCn1cc[n+](C)c1C.F[B-](F)(F)F |
| 8.2 ± 0.86 | 8.01 ± 0.84 | 7.81 ± 0.82 | 7.63 ± 0.8 | 7.52 ± 0.79 |  |  |  |  |  | C1=CCCCC1 [cyclohexene] + CCCCCCCCn1cc[n+](C)c1C.F[B-](F)(F)F |
| 55.2 ± 5.8 | 54.2 ± 5.7 | 52.9 ± 5.6 | 51.5 ± 5.4 | 50.5 ± 5.3 |  |  |  |  |  | CCCCCCCCCC [decane] + CCCCCCCCn1cc[n+](C)c1C.F[B-](F)(F)F |
| 1.08 ± 0.11 | 1.09 ± 0.11 | 1.1 ± 0.11 | 1.1 ± 0.11 | 1.11 ± 0.11 |  |  |  |  |  | ClCCl [dichloromethane] + CCCCCCCCn1cc[n+](C)c1C.F[B-](F)(F)F |
| 2.12 ± 0.22 | 1.96 ± 0.21 | 1.82 ± 0.19 | 1.67 ± 0.17 | 1.54 ± 0.16 |  |  |  |  |  | CCO [ethanol] + CCCCCCCCn1cc[n+](C)c1C.F[B-](F)(F)F |
| 2.91 ± 0.31 | 2.96 ± 0.31 | 2.96 ± 0.31 | 2.96 ± 0.31 | 2.96 ± 0.31 |  |  |  |  |  | CCOC(C)=O [ethyl acetate] + CCCCCCCCn1cc[n+](C)c1C.F[B-](F)(F)F |
| 4.36 ± 0.46 | 4.42 ± 0.46 | 4.46 ± 0.47 | 4.5 ± 0.47 | 4.57 ± 0.48 |  |  |  |  |  | CCc1ccccc1 [ethylbenzene] + CCCCCCCCn1cc[n+](C)c1C.F[B-](F)(F)F |
| 15.8 ± 1.7 | 15.3 ± 1.6 | 14.8 ± 1.6 | 14.3 ± 1.5 | 14 ± 1.5 |  |  |  |  |  | CCCCC [pentane] + CCCCCCCCn1cc[n+](C)c1C.F[B-](F)(F)F |
| 1.04 ± 0.11 | 1.06 ± 0.11 | 1.07 ± 0.11 | 1.08 ± 0.11 | 1.09 ± 0.11 |  |  |  |  |  | ClC(Cl)Cl [trichloromethane] + CCCCCCCCn1cc[n+](C)c1C.F[B-](F)(F)F |
